Source: patent publication US8269014B2, “Thiophene analogues for the treatment or prevention of flavivirus infections” (Vertex Pharmaceuticals (Canada) Incorporated, priority 2006, dated 2012)

Assays:
[1] = test system: HCV replicon cells (Huh-7 ET cells); assay type: cell-based, human; details: Ratio of CC50/IC50 in HCV replicon cells (Huh-7 ET cells); average TI when tested more than once
CYP3A4 = assay: Induction in cultured human hepatocytes (CYP3A4 activity and mRNA); assay type: in vitro ADME; details: relative to compound E / other thiophene analogues
[2] = Stability in human and rat microsomes; assay type: in vitro ADME; details: human and rat hepatic microsomes; relative to compound E / other thiophene analogues
Experimental: Incubations containing no NADPH and no UDPGA are used as controls. The compounds are incubated at 50 uM for 0 and 60 minutes. The reaction is stopped by the addition of an equal volume of acetonitrile. The mixture is centrifuged and the supernatant is analyzed by HPLC/UV or MS/MS. The percentage parent remaining corresponds to the area of the parent compound in the 60-minute incubation versus the area of the parent compound in a 0-minute incubation ×100.

Row | Structure (SMILES) | TI [1] | induction profile in human hepatocytes (CYP3A4) | microsome stability profile [2]
1 | CC1CCC(C(=O)N(c2cc(-c3ccccc3)sc2C(=O)O)C(C)C)CC1 (stereo not shown) [A, reference compound] | ++ (++: 100-1000) | – | –
2 | CC1CCC(C(=O)N(c2cc(-c3ccccc3)sc2C(=O)O)C2CCC(O)CC2)CC1 (stereo not shown) [B, reference compound] | ++ (++: 100-1000) | – | –
3 | COC1CCC(N(C(=O)C2CCC(C)CC2)c2cc(-c3ccccc3)sc2C(=O)O)CC1 (stereo not shown) [C, reference compound] | + (+: <100) | – | –
4 | CC(C)(C)C#Cc1cc(N(C(=O)[C@H]2CC[C@H](C)CC2)[C@H]2CC[C@H](O)CC2)c(C(=O)O)s1 [Compound 1, 5-(3,3-DIMETHYL-BUT-1-YNYL)-3-[(TRANS-4-HYDROXY-CYCLOHEXYL)-(TRANS-4-METHYL-CYCLOHEXANECARBONYL)-AMINO]-THIOPHENE-2-CARBOXYLIC ACID] | ++++++ (++++++: >6000) | better | better
5 | CO[C@H]1CC[C@H](N(c2cc(C#CC(C)(C)C)sc2C(=O)O)C(=O)[C@H]2CC[C@H](C)CC2)CC1 [Compound 2, 5-(3,3-DIMETHYL-BUT-1-YNYL)-3-[(TRANS-4-METHOXY-CYCLOHEXYL)-(TRANS-4-METHYL-CYCLOHEXANECARBONYL)-AMINO]-THIOPHENE-2-CARBOXYLIC ACID] | +++ (+++: 1000-2000) | better | better
6 | CC(C)(C)C#Cc1cc(N(C(=O)[C@H]2CC[C@H](C)CC2)[C@H]2CC[C@@H](n3cncn3)CC2)c(C(=O)O)s1 [Compound 3, 5-(3,3-DIMETHYL-BUT-1-YNYL)-3-[(TRANS-4-METHYL-CYCLOHEXANECARBONYL)-(CIS-4-[1,2,4]TRIAZOL-1-YL-CYCLOHEXYL)-AMINO]-THIOPHENE-2-CARBOXYLIC ACID] | ++++++ (++++++: >6000) | – | –
7 | CC(C)(C)C#Cc1cc(N(C(=O)[C@H]2CC[C@H](C)CC2)[C@H]2CC[C@H](n3cncn3)CC2)c(C(=O)O)s1 [Compound 4, 5-(3,3-DIMETHYL-BUT-1-YNYL)-3-[(TRANS-4-METHYL-CYCLOHEXANECARBONYL)-(TRANS-4-[1,2,4]TRIAZOL-1-YL-CYCLOHEXYL)-AMINO]-THIOPHENE-2-CARBOXYLIC ACID] | ++++ (++++: 2000-4000) | – | –
8 | CC(C)(C)C#Cc1cc(N(C(=O)[C@H]2CC[C@H](C)CC2)[C@H]2CC[C@@H](O)CC2)c(C(=O)O)s1 [Compound 5, 5-(3,3-DIMETHYL-BUT-1-YNYL)-3-[(CIS-4-HYDROXY-CYCLOHEXYL)-(TRANS-4-METHYL-CYCLOHEXANECARBONYL)-AMINO]-THIOPHENE-2-CARBOXYLIC ACID] | ++++++ (++++++: >6000) | – | –
9 | CC1CCC(C(=O)N(c2cc(C#CC(C)(C)C)sc2C(=O)O)C2CCC(n3ccnn3)CC2)CC1 (stereo not drawn) [Compound 7, 5-(3,3-DIMETHYL-BUT-1-YNYL)-3-[(TRANS-4-METHYL-CYCLOHEXANECARBONYL)-(4-CIS-[1,2,3]TRIAZOL-1-YL-CYCLOHEXYL)-AMINO]-THIOPHENE-2-CARBOXYLIC ACID] | +++++ (+++++: 4000-6000) | – | –
10 | CC(C)(C)C#Cc1cc(N(C(=O)[C@H]2CC[C@H](C)CC2)[C@H]2CC[C@H](n3ccnn3)CC2)c(C(=O)O)s1 [Compound 8, 5-(3,3-DIMETHYL-BUT-1-YNYL)-3-[(TRANS-4-METHYL-CYCLOHEXANECARBONYL)-(TRANS-4-[1,2,3]TRIAZOL-1-YL-CYCLOHEXYL)-AMINO]-THIOPHENE-2-CARBOXYLIC ACID] | ++++++ (++++++: >6000) | – | –
11 | CC(C)(C)C#Cc1cc(N(C(=O)[C@H]2CC[C@H](C)CC2)[C@H]2CC[C@H](F)CC2)c(C(=O)O)s1 [Compound 9, 5-(3,3-DIMETHYL-BUT-1-YNYL)-3-[(TRANS-4-FLUORO-CYCLOHEXYL)-(TRANS-4-METHYL-CYCLOHEXANECARBONYL)-AMINO]-THIOPHENE-2-CARBOXYLIC ACID] | ++++++ (++++++: >6000) | – | –
12 | CC1CCC(C(=O)N(c2cc(C#CC(C)(C)C)sc2C(=O)O)C(C)C)CC1 (stereo not shown) [E, reference compound] | +++ (+++: 1000-2000) | – | –
13 | CC1CCC(C(=O)N(c2cc(-c3ccccc3)sc2C(=O)O)C2CCC(n3ccnn3)CC2)CC1 (stereo not shown) [F, reference compound] | ++ (++: 100-1000) | – | –
14 | CC1CCC(C(=O)N(c2cc(-c3ccccc3)sc2C(=O)O)C2CCC(n3cncn3)CC2)CC1 (stereo not shown) [G, reference compound] | +++ (+++: 1000-2000) | – | –
15 | CC1CCC(C(=O)N(c2cc(-c3ccccc3)sc2C(=O)O)C2CCC(F)CC2)CC1 (stereo not shown) [H, reference compound] | + (+: <100) | – | –
